Laboratory results reported in ChEMBL document CHEMBL1777681, “Structure and activity relationships of tartrate-based TACE inhibitors” (Bioorg Med Chem Lett, 2010).

How the values were obtained:
[1] = biological target: T1, Disintegrin and metalloproteinase domain-containing protein 17 (Homo sapiens, UniProt P78536); assay: Inhibition of TACE
[2] = biological target: T2, Matrilysin (Homo sapiens, UniProt P09237); assay: Inhibition of MMP7
T2 sequence (P09237 whole entry): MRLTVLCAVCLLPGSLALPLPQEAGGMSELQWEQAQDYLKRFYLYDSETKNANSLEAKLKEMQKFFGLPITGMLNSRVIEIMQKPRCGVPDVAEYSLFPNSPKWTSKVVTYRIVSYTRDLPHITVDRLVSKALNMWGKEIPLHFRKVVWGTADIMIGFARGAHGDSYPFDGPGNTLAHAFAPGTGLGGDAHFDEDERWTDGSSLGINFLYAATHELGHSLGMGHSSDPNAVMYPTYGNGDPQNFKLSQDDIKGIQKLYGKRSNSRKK

[3] = biological target: Matrix metalloproteinase-14 (Homo sapiens, UniProt P50281); assay: Inhibition of MMP14
[4] = biological target: Stromelysin-1 (Homo sapiens, UniProt P08254); assay: Inhibition of MMP3
[5] = biological target: T3, Disintegrin and metalloproteinase domain-containing protein 10 (Homo sapiens, UniProt O14672); assay: Inhibition of ADAM10
T3 sequence (O14672 whole entry): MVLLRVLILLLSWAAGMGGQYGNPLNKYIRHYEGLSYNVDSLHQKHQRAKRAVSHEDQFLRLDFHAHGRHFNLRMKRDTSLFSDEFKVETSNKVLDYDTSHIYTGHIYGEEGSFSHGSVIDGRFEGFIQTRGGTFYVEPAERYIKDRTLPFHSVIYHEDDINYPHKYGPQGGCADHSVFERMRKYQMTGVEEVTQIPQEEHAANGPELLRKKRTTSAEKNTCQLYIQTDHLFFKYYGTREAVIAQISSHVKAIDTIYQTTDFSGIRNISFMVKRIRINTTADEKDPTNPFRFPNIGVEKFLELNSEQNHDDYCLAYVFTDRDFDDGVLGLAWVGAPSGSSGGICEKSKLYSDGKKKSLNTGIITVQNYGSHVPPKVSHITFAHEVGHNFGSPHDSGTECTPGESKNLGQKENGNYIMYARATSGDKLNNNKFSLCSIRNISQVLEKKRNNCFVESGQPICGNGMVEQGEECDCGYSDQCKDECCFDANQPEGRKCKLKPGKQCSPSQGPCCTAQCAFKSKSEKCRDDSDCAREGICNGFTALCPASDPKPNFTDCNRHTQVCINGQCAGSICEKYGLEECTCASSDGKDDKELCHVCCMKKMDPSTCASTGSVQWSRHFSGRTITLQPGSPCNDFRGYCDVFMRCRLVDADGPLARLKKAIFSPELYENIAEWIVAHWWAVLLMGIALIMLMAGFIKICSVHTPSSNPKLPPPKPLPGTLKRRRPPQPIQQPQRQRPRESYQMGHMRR

[6] = biological target: Matrix metalloproteinase-9 (Homo sapiens, UniProt P14780); assay: Inhibition of MMP9
[7] = biological target: T4, Interstitial collagenase (Homo sapiens, UniProt P03956); assay: Inhibition of MMP1
T4 sequence (P03956 whole entry): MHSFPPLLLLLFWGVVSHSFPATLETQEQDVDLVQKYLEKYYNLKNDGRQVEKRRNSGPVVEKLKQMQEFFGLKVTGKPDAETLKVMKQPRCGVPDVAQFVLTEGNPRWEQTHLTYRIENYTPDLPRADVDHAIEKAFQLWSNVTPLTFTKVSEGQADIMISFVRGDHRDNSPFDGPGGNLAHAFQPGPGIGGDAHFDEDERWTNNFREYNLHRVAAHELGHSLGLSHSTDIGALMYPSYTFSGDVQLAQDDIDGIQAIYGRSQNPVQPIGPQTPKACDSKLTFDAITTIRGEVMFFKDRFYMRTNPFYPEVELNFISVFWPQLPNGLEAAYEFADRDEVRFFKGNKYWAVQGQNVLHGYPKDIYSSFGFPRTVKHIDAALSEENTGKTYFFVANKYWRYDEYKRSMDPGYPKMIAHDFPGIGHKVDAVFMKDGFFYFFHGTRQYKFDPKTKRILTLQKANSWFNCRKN

[8] = biological target: Collagenase 3 (Homo sapiens, UniProt P45452); assay: Inhibition of MMP13
[9] = biological target: 72 kDa type IV collagenase (Homo sapiens, UniProt P08253); assay: Inhibition of MMP2
[10] = AUC in Sprague-Dawley rat at 3 mg/kg, iv; assay type: ADME, organism-based; design: dose 3 mg/kg, route intravenous; conditions: plasma
[11] = Half life in Sprague-Dawley rat at 10 mg/kg, po; assay type: ADME, organism-based; design: dose 10 mg/kg, route oral; conditions: in vivo
[12] = AUC in Sprague-Dawley rat at 10 mg/kg, po; assay type: ADME, organism-based; design: dose 10 mg/kg, route oral; conditions: plasma
[13] = Bioavailability in Sprague-Dawley rat at 10 mg/kg, po; assay type: ADME, organism-based; conditions: in vivo
[14] = Clearance in Sprague-Dawley rat at 3 mg/kg, iv; assay type: ADME, organism-based; design: dose 3 mg/kg, route intravenous; conditions: in vivo
[15] = biological target: T1, Disintegrin and metalloproteinase domain-containing protein 17; assay: Inhibition of TACE at 500 nM

T1 sequence (P78536 whole entry, the tested form may be a part): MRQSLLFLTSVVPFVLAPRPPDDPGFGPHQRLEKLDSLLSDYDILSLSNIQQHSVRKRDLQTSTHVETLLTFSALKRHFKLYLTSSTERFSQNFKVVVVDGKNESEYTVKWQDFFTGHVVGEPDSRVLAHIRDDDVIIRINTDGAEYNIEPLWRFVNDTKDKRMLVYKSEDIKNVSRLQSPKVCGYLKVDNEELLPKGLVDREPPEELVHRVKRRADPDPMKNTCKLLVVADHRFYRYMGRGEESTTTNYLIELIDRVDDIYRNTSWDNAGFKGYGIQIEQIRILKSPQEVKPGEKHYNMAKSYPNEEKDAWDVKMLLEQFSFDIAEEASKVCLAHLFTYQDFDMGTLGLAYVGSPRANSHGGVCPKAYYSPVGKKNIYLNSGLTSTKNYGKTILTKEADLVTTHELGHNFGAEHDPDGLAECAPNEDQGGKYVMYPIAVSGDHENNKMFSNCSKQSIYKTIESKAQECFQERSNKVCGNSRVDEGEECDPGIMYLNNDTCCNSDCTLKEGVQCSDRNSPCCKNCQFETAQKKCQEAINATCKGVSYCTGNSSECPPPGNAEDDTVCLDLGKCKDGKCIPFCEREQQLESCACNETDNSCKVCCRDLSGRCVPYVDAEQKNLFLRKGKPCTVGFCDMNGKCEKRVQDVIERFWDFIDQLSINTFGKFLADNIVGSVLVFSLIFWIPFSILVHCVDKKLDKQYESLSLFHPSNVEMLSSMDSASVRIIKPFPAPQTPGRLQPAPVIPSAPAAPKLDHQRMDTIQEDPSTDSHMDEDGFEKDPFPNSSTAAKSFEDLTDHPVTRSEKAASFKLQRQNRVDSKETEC
72 kDa type IV collagenase, sequence (P08253 whole entry): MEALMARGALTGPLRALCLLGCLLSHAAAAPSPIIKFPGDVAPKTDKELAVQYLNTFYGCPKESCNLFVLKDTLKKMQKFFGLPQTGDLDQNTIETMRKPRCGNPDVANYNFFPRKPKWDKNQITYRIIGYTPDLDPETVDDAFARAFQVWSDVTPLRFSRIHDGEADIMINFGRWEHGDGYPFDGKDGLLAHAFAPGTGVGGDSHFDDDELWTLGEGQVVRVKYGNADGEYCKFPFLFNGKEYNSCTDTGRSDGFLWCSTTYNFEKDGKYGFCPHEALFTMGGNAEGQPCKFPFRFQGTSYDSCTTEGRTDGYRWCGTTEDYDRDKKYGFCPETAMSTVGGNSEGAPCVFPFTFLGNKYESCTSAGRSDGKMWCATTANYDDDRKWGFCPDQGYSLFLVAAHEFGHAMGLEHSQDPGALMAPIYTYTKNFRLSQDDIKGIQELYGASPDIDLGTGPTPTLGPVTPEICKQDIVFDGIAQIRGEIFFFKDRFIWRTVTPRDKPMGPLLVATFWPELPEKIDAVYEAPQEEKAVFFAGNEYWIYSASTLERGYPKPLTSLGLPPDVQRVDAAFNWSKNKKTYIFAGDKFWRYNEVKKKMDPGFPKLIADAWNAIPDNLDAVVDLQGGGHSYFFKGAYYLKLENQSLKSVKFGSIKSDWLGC
Matrix metalloproteinase-9, sequence (P14780 whole entry): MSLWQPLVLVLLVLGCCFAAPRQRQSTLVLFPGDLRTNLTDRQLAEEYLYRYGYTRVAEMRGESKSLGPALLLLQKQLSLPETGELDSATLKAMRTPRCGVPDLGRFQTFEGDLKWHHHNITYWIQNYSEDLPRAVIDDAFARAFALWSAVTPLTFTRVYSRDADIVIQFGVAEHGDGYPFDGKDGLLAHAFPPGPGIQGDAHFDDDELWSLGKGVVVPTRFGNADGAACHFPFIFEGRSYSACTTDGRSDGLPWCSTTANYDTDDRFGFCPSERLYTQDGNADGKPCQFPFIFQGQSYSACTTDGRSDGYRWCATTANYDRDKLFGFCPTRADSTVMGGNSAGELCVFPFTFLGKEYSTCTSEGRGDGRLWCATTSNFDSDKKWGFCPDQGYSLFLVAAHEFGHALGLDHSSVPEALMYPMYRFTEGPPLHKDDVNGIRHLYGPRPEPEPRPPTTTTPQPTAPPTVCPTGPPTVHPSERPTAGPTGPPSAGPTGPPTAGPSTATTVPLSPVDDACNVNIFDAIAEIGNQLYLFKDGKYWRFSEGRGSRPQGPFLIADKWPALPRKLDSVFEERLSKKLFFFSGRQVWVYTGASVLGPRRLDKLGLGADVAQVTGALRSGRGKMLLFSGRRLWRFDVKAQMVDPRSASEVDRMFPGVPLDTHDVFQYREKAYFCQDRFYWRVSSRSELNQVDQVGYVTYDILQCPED
Stromelysin-1, sequence (P08254 whole entry, the tested form may be a part): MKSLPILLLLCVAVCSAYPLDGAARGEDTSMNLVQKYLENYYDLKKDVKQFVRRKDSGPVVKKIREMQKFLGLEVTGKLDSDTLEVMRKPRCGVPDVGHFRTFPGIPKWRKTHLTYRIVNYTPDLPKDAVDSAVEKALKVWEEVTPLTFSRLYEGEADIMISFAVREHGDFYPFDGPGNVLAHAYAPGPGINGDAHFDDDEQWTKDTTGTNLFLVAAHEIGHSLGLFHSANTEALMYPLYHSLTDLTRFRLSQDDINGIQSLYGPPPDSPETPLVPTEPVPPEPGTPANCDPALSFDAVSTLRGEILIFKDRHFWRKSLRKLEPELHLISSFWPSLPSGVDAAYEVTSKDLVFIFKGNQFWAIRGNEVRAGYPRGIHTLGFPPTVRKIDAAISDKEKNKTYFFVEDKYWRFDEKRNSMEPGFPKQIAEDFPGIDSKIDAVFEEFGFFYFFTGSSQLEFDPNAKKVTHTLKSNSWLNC

Ki [1] [nM] | Structure (SMILES) | also measured
13 | O=C(NCc1ccc(-c2ccsc2)cc1)[C@H](O)[C@@H](O)C(=O)N1CCC[C@@H]1c1ccccc1 | 
20 | O=C(NCc1ccc(Cc2ccccc2)s1)[C@H](O)[C@@H](O)C(=O)N1CCC[C@@H]1c1cccc(Cl)c1 | 
315 | C[C@H]1CN(c2ccccc2C#N)CCC1CNC(=O)[C@H](O)[C@@H](O)C(=O)N1CCC[C@@H]1c1ccccc1 (stereo partly specified) | 
4 | Cc1nc2ccccc2n1Cc1ccc(CNC(=O)[C@H](O)[C@@H](O)C(=O)N2CCCC2c2cccs2)s1 (mixture of isomers) | 
17 | N#Cc1ccccc1-c1ccc(CNC(=O)[C@H](O)[C@@H](O)C(=O)N2CCC[C@@H]2c2ccccc2)cc1 | 
9 | Cc1nc2ccccc2n1Cc1ccc(CNC(=O)[C@H](O)[C@@H](O)C(=O)N2CCCC2c2nccs2)s1 (mixture of isomers) | 
307 | O=C(NCc1ccc(-c2ccccc2)nc1)[C@H](O)[C@@H](O)C(=O)N1CCCC1c1cccc(Cl)c1 (mixture of isomers) | 
9.3 | O=C(NCc1ccc(Cc2ccccc2Cl)s1)[C@H](O)[C@@H](O)C(=O)N1CCC[C@@H]1c1cccc(Cl)c1 | 
48 | O=C(NCc1ccc(Cc2cccc(Cl)c2)s1)[C@H](O)[C@@H](O)C(=O)N1CCC[C@@H]1c1cccc(Cl)c1 | 
3 | O=C(NCc1ccc(-c2csnn2)cc1)[C@H](O)[C@@H](O)C(=O)N1CCCC1c1cccc(Cl)c1 (mixture of isomers) | 
2 | C[C@@H]1CN(c2ccccc2C#N)CCC1CNC(=O)[C@H](O)[C@@H](O)C(=O)N1CCC[C@@H]1c1ccccc1 (stereo partly specified) | 
22 | O=C(NCc1ccc(-c2ccccc2)cc1)[C@H](O)[C@@H](O)C(=O)N1CCC[C@@H]1c1ccccc1 | 
4 | O=C(NCc1ccc(-n2cccn2)cc1)[C@H](O)[C@@H](O)C(=O)N1CCCC1c1cccc(Cl)c1 (mixture of isomers) | Ki [2]: 47000 nM; Ki [3]: 120 nM; Ki [4]: 19000 nM; Ki [5]: 602 nM; Ki [6]: 11000 nM; Ki [7]: > 100000 nM; Ki [8]: 3500 nM; Ki [9]: 1900 nM
0.2 | O=C(NCc1ccc(Cn2c(C(F)(F)F)nc3ccccc32)s1)[C@H](O)[C@@H](O)C(=O)N1Cc2ccccc2C1 | 
12 | Cc1nc2ccccc2n1Cc1ccc(CNC(=O)[C@H](O)[C@@H](O)C(=O)N2CCCC2c2cccnc2)s1 (mixture of isomers) | 
11 | O=C(NCc1ccc(Cc2ccsc2)s1)[C@H](O)[C@@H](O)C(=O)N1CCC[C@@H]1c1cccc(Cl)c1 | 
0.86 | C[C@@H](NC(=O)[C@H](O)[C@@H](O)C(=O)N1CCC[C@@H]1c1cccc(Cl)c1)c1ccc(-n2cccn2)cc1 | Ki [2]: 3800 nM; AUC [10]: 3.1 µM·h; Ki [3]: 1100 nM; half-life [11]: 36 min; Ki [5]: 166 nM; AUC [12]: 2.1 µM·h; bioavailability [13]: 20%; clearance [14]: 35 mL/min/kg; Ki [6]: 88400 nM; Ki [7]: > 100000 nM; Ki [8]: 3300 nM; Ki [9]: 43600 nM
36 | Cc1nc2ccccc2n1Cc1ccc(CNC(=O)[C@H](O)[C@@H](O)C(=O)N2CCCC2c2ccncc2)s1 (mixture of isomers) | 
37 | O=C(NCc1ccc(Cc2ccc(Cl)cc2)s1)[C@H](O)[C@@H](O)C(=O)N1CCC[C@@H]1c1cccc(Cl)c1 | 
8 | O=C(NCc1ccc(-c2ccon2)cc1)[C@H](O)[C@@H](O)C(=O)N1CCC[C@@H]1c1ccccc1 | 
74 | O=C(NCc1ccc(-c2nccs2)cc1)[C@H](O)[C@@H](O)C(=O)N1CCCC1c1cccc(Cl)c1 (mixture of isomers) | 

Ki [1] [nM] | Structure (SMILES) | also measured
6 | O=C(NCc1ccc(-c2ccccc2)cn1)[C@H](O)[C@@H](O)C(=O)N1CCCC1c1cccc(Cl)c1 (mixture of isomers) | 
2 | N#Cc1sccc1-c1ccc(CNC(=O)[C@H](O)[C@@H](O)C(=O)N2CCC[C@@H]2c2ccccc2)cc1 | 
 | O=C(NCc1cccs1)[C@H](O)[C@@H](O)C(=O)N1CCCC1c1cccc(Cl)c1 (stereo partly specified) | inhibition [15]: 44%
28 | O=C(NCc1ccc(-c2cccs2)cc1)[C@H](O)[C@@H](O)C(=O)N1CCC[C@@H]1c1ccccc1 | 
 | O=C(NCc1ccc(Cc2cccc3ccccc23)s1)[C@H](O)[C@@H](O)C(=O)N1CCC[C@@H]1c1cccc(Cl)c1 | inhibition [15]: 50%
4 | Cc1nc2ccccc2n1Cc1ccc(CNC(=O)[C@H](O)[C@@H](O)C(=O)N2CCC[C@@H]2c2cccc(Cl)c2)s1 | 
0.5 | Cc1nc2ccccc2n1Cc1ccc(CNC(=O)[C@H](O)[C@@H](O)C(=O)N2Cc3ccccc3C2)s1 | 
45 | O=C(NCc1cc(Cc2ccccc2)cs1)[C@H](O)[C@@H](O)C(=O)N1CCCC1c1cccc(Cl)c1 (stereo partly specified) | 
12 | N#Cc1ccccc1N1CC2C(CNC(=O)[C@H](O)[C@@H](O)C(=O)N3CCC[C@@H]3c3ccccc3)C2C1 (stereo partly specified) | 
296 | Cc1nc2ccccc2n1-c1ccc(CNC(=O)[C@H](O)[C@@H](O)C(=O)N2CCCC2c2cccc(Cl)c2)cc1 (mixture of isomers) | 
4 | N#Cc1ccccc1N1CCC(CNC(=O)[C@H](O)[C@@H](O)C(=O)N2CCCC2c2cccc(Cl)c2)CC1 (mixture of isomers) | 
36 | O=C(NCc1ccc(-c2cccnc2)cc1)[C@H](O)[C@@H](O)C(=O)N1CCC[C@@H]1c1ccccc1 | 
18 | O=C(NCc1ccc(-c2cscn2)cc1)[C@H](O)[C@@H](O)C(=O)N1CCCC1c1cccc(Cl)c1 (mixture of isomers) | 
270 | O=C(NCc1ccc(-n2ccnc2)cc1)[C@H](O)[C@@H](O)C(=O)N1CCCC1c1cccc(Cl)c1 (mixture of isomers) | 
3 | COc1ccccc1Cc1ccc(CNC(=O)[C@H](O)[C@@H](O)C(=O)N2CCC[C@@H]2c2cccc(Cl)c2)s1 | 
37 | O=C(NCc1ccc(Cn2ccnc2)s1)[C@H](O)[C@@H](O)C(=O)N1CCC[C@@H]1c1cccc(Cl)c1 | 
2 | Cc1nc2ccccc2n1Cc1ccc(CNC(=O)[C@H](O)[C@@H](O)C(=O)N2CCC[C@@H]2c2csc(N)n2)s1 | 
8 | Cc1nc2ccccc2n1Cc1ccc(CNC(=O)[C@H](O)[C@@H](O)C(=O)N2CCCC2c2ccccn2)s1 (mixture of isomers) | 
5 | N#Cc1cnccc1-c1ccc(CNC(=O)[C@H](O)[C@@H](O)C(=O)N2CCC[C@@H]2c2ccccc2)cc1 | 
15 | O=C(NCc1ccc(-c2ccncc2)cc1)[C@H](O)[C@@H](O)C(=O)N1CCC[C@@H]1c1ccccc1 | 
